The NIST ThermoML archive (doi:10.1021/acs.jced.8b00201)

Assay: xn = mol fraction of the nth substance listed
Conditions: 100 kPa, Liquid; for viscosity: Concentric cylinders viscometry; for mass density: Vibrating tube method

CCCCCCCO [heptan-1-ol] + O=C1CCCCC1
Conditions | mass density [kg/m3] | viscosity [mPa·s]
293.15 K, x2 = 0 | 822.2 | 7.03
293.15 K, x2 = 0.0809 | 829.7 | 6.06
293.15 K, x2 = 0.1601 | 837.3 | 5.23
293.15 K, x2 = 0.2406 | 845.4 | 4.49
293.15 K, x2 = 0.3511 | 857.4 | 3.68
293.15 K, x2 = 0.4227 | 865.6 | 3.27
293.15 K, x2 = 0.5754 | 884.4 | 2.71
293.15 K, x2 = 0.6492 | 894.2 | 2.59
293.15 K, x2 = 0.7422 | 907.3 | 2.46
293.15 K, x2 = 0.8513 | 923.9 | 2.38
293.15 K, x2 = 0.9385 | 938.2 | 2.35
298.15 K, x2 = 0 | 818.7 | 5.92
298.15 K, x2 = 0.0809 | 826 | 5.15
298.15 K, x2 = 0.1601 | 833.5 | 4.46
298.15 K, x2 = 0.2406 | 841.4 | 3.89
298.15 K, x2 = 0.3511 | 853.1 | 3.22
298.15 K, x2 = 0.4227 | 861.2 | 2.83
298.15 K, x2 = 0.5754 | 879.6 | 2.39
298.15 K, x2 = 0.6492 | 889.3 | 2.29
298.15 K, x2 = 0.7422 | 902.2 | 2.19
298.15 K, x2 = 0.8513 | 918.5 | 2.12
298.15 K, x2 = 0.9385 | 932.6 | 2.09
303.15 K, x2 = 0 | 815.2 | 5.03
303.15 K, x2 = 0.0809 | 822.3 | 4.41
303.15 K, x2 = 0.1601 | 829.7 | 3.86
303.15 K, x2 = 0.2406 | 837.5 | 3.37
303.15 K, x2 = 0.3511 | 849 | 2.82
303.15 K, x2 = 0.4227 | 857 | 2.51
303.15 K, x2 = 0.5754 | 875.2 | 2.11
303.15 K, x2 = 0.6492 | 884.8 | 2.04
303.15 K, x2 = 0.7422 | 897.6 | 1.97
303.15 K, x2 = 0.8513 | 913.8 | 1.94
303.15 K, x2 = 0.9385 | 927.7 | 1.93
308.15 K, x2 = 0 | 811.6 | 4.3
308.15 K, x2 = 0.0809 | 818.7 | 3.78
308.15 K, x2 = 0.1601 | 825.9 | 3.32
308.15 K, x2 = 0.2406 | 833.6 | 2.93
308.15 K, x2 = 0.3511 | 845 | 2.49
308.15 K, x2 = 0.4227 | 852.8 | 2.26
308.15 K, x2 = 0.5754 | 870.9 | 1.93
308.15 K, x2 = 0.6492 | 880.4 | 1.85
308.15 K, x2 = 0.7422 | 893.1 | 1.78
308.15 K, x2 = 0.8513 | 909.2 | 1.75
308.15 K, x2 = 0.9385 | 923.1 | 1.76
313.15 K, x2 = 0 | 808 | 3.71
313.15 K, x2 = 0.0809 | 814.9 | 3.24
313.15 K, x2 = 0.1601 | 822.1 | 2.86
313.15 K, x2 = 0.2406 | 829.7 | 2.54
313.15 K, x2 = 0.3511 | 840.9 | 2.19
313.15 K, x2 = 0.4227 | 848.7 | 2.03
313.15 K, x2 = 0.5754 | 866.6 | 1.77
313.15 K, x2 = 0.6492 | 876 | 1.72
313.15 K, x2 = 0.7422 | 888.6 | 1.65
313.15 K, x2 = 0.8513 | 904.5 | 1.62
313.15 K, x2 = 0.9385 | 918.4 | 1.6
318.15 K, x2 = 0 | 804.4 | 3.21
318.15 K, x2 = 0.0809 | 811.2 | 2.83
318.15 K, x2 = 0.1601 | 818.3 | 2.5
318.15 K, x2 = 0.2406 | 825.8 | 2.23
318.15 K, x2 = 0.3511 | 836.9 | 1.95
318.15 K, x2 = 0.4227 | 844.6 | 1.82
318.15 K, x2 = 0.5754 | 862.3 | 1.61
318.15 K, x2 = 0.6492 | 871.7 | 1.57
318.15 K, x2 = 0.7422 | 884.2 | 1.51
318.15 K, x2 = 0.8513 | 900.2 | 1.49
318.15 K, x2 = 0.9385 | 914.1 | 1.47
323.15 K, x2 = 0 | 800.7 | 2.79
323.15 K, x2 = 0.0809 | 807.5 | 2.49
323.15 K, x2 = 0.1601 | 814.5 | 2.23
323.15 K, x2 = 0.2406 | 821.9 | 2.01
323.15 K, x2 = 0.3511 | 833 | 1.77
323.15 K, x2 = 0.4227 | 840.7 | 1.64
323.15 K, x2 = 0.5754 | 858.4 | 1.45
323.15 K, x2 = 0.6492 | 867.7 | 1.4
323.15 K, x2 = 0.7422 | 880.3 | 1.35
323.15 K, x2 = 0.8513 | 896.4 | 1.33
323.15 K, x2 = 0.9385 | 910.2 | 1.33

O=C1CCCCC1 [cyclohexanone] + CCCCCCCCO
Conditions | mass density [kg/m3] | viscosity [mPa·s]
293.15 K, x1 = 0.0803 | 831.3 | 7.76
293.15 K, x1 = 0.1519 | 837.4 | 6.62
293.15 K, x1 = 0.2388 | 845.2 | 5.58
293.15 K, x1 = 0.3427 | 855.4 | 4.48
293.15 K, x1 = 0.4378 | 865.6 | 3.72
293.15 K, x1 = 0.5606 | 880 | 2.97
293.15 K, x1 = 0.6498 | 891.6 | 2.57
293.15 K, x1 = 0.7407 | 904.5 | 2.33
293.15 K, x1 = 0.8422 | 920.4 | 2.28
293.15 K, x1 = 0.9377 | 937.4 | 2.25
293.15 K, x1 = 1 | 948.8 | 2.3
298.15 K, x1 = 0.0803 | 827.7 | 6.52
298.15 K, x1 = 0.1519 | 833.6 | 5.65
298.15 K, x1 = 0.2388 | 841.3 | 4.8
298.15 K, x1 = 0.3427 | 851.2 | 3.91
298.15 K, x1 = 0.4378 | 861.2 | 3.29
298.15 K, x1 = 0.5606 | 875.4 | 2.66
298.15 K, x1 = 0.6498 | 886.8 | 2.32
298.15 K, x1 = 0.7407 | 899.5 | 2.13
298.15 K, x1 = 0.8422 | 915.1 | 2.07
298.15 K, x1 = 0.9377 | 931.4 | 2.04
298.15 K, x1 = 1 | 943.1 | 2.09
303.15 K, x1 = 0.0803 | 824.1 | 5.54
303.15 K, x1 = 0.1519 | 829.8 | 4.87
303.15 K, x1 = 0.2388 | 837.4 | 4.17
303.15 K, x1 = 0.3427 | 847.2 | 3.44
303.15 K, x1 = 0.4378 | 857 | 2.94
303.15 K, x1 = 0.5606 | 871.1 | 2.42
303.15 K, x1 = 0.6498 | 882.3 | 2.16
303.15 K, x1 = 0.7407 | 894.9 | 1.97
303.15 K, x1 = 0.8422 | 910.4 | 1.9
303.15 K, x1 = 0.9377 | 926.6 | 1.87
303.15 K, x1 = 1 | 938.2 | 1.91
308.15 K, x1 = 0.0803 | 820.5 | 4.73
308.15 K, x1 = 0.1519 | 826.1 | 4.16
308.15 K, x1 = 0.2388 | 833.6 | 3.61
308.15 K, x1 = 0.3427 | 843.2 | 3.03
308.15 K, x1 = 0.4378 | 852.9 | 2.6
308.15 K, x1 = 0.5606 | 866.8 | 2.15
308.15 K, x1 = 0.6498 | 877.9 | 1.94
308.15 K, x1 = 0.7407 | 890.4 | 1.79
308.15 K, x1 = 0.8422 | 905.9 | 1.74
308.15 K, x1 = 0.9377 | 922 | 1.72
308.15 K, x1 = 1 | 933.5 | 1.75
313.15 K, x1 = 0.0803 | 816.8 | 4.07
313.15 K, x1 = 0.1519 | 822.4 | 3.6
313.15 K, x1 = 0.2388 | 829.7 | 3.12
313.15 K, x1 = 0.3427 | 839.2 | 2.63
313.15 K, x1 = 0.4378 | 848.8 | 2.3
313.15 K, x1 = 0.5606 | 862.5 | 1.95
313.15 K, x1 = 0.6498 | 873.6 | 1.75
313.15 K, x1 = 0.7407 | 886 | 1.64
313.15 K, x1 = 0.8422 | 901.3 | 1.6
313.15 K, x1 = 0.9377 | 917.3 | 1.57
313.15 K, x1 = 1 | 928.8 | 1.6
318.15 K, x1 = 0.0803 | 813.1 | 3.51
318.15 K, x1 = 0.1519 | 818.6 | 3.11
318.15 K, x1 = 0.2388 | 825.8 | 2.73
318.15 K, x1 = 0.3427 | 835.2 | 2.32
318.15 K, x1 = 0.4378 | 844.7 | 2.04
318.15 K, x1 = 0.5606 | 858.4 | 1.75
318.15 K, x1 = 0.6498 | 869.3 | 1.6
318.15 K, x1 = 0.7407 | 881.6 | 1.5
318.15 K, x1 = 0.8422 | 896.9 | 1.46
318.15 K, x1 = 0.9377 | 912.9 | 1.44
318.15 K, x1 = 1 | 924.4 | 1.46
323.15 K, x1 = 0.0803 | 809.5 | 3.03
323.15 K, x1 = 0.1519 | 814.9 | 2.73
323.15 K, x1 = 0.2388 | 822.1 | 2.42
323.15 K, x1 = 0.3427 | 831.5 | 2.09
323.15 K, x1 = 0.4378 | 841 | 1.85
323.15 K, x1 = 0.5606 | 854.6 | 1.6
323.15 K, x1 = 0.6498 | 865.5 | 1.46
323.15 K, x1 = 0.7407 | 877.9 | 1.37
323.15 K, x1 = 0.8422 | 893.2 | 1.34
323.15 K, x1 = 0.9377 | 909.2 | 1.32
323.15 K, x1 = 1 | 920.7 | 1.34
